Experimental data published in patent US9540343B2 (Gilead Sciences, Inc., priority 2011, dated 2017).

Legend:
[1] = tested on: HIV-IIIb; test: Test A: Antiviral assay in MT4 cells; type: cell-based, HIV-1; conditions: MT-4 cells infected with HIV-IIIb, 5 days, CellTiter-Glo; for % inhibition at 2 μM: percent inhibition of virus-induced cell killing, from dose response curve at 2 uM drug; for inhibition at 2 µM: Human immunodeficiency virus 1, IIIB, MT4, 120 h, read-out: % inhibition at 2 μM, percent inhibition of virus-induced cell killing, from dose response curve at 2 uM drug
[2] = in vitro
Description: For the antiviral assay, 40 μL of 1× test concentration of 3-fold serially diluted compound in culture medium with 10% FBS was added to each well of a 384-well plate (10 concentrations) in quadruplicate. MT-4 cells were next mixed with HIV-IIIb at an m.o.i of 0.003 for 1 hour, after which time 35 μL of virus/cell mixture (2000 cells) was immediately added to each well containing 40 μL of diluted compound. The plates were then incubated at 37° C. for 5 days. After 5 days of incubation, 25 μl of 2× concentrated CellTiter-Glo™ Reagent (catalog #G7571, Promega Biosciences, Inc., Madison, Wis.) was added to each well containing MT-4 cells. Cell lysis was carried out by incubating at room temperature for 10 min and then chemiluminescence was read.
Test B: Cytotoxicity Assay
Compound cytotoxicity and the corresponding CC50 values was determined using the same protocol as described in the antiviral assay (Test A) except that uninfected cells were used.

[3] = human, uninfected MT-4 cells, CC50 (nM), same protocol as Test A, CellTiter-Glo

| Structure (SMILES) | % inhibition at 2 μM [1] | CC50 at 5 days [2, 3] | inhibition at 2 µM [1] | CC50 at 5 days ([2]; human, CC50 (nM), uninfected MT-4 cells, same protocol as Test A, CellTiter-Glo) |
| --- | --- | --- | --- | --- |
| O=C(N[C@@H](Cc1cc(F)cc(F)c1)c1ncccc1-c1ccc(Cl)cc1)C(c1c[nH]c2ccc(F)cc12)C(F)(F)F (single isomer, unassigned) [Example 36F] | 15% | 7200 nM |  |  |
| NC(=O)c1cc(-c2cccnc2[C@H](Cc2cc(F)cc(F)c2)NC(=O)Cn2nc(C(F)F)c3c2CC2CC32)ccc1F (single isomer, unassigned) [Example 248] |  | 26500 nM | 88% |  |
| O=C(Cn1nc(C(F)F)c2c1C1CC1CC2)NC(Cc1cc(F)cc(F)c1)c1ncncc1-c1cnc2[nH]ccc2c1 (single isomer, unassigned) [Example 329] | 99% | 14700 nM |  |  |
| CC(C)(CC(=O)N[C@@H](Cc1cc(F)cc(F)c1)c1ncccc1-c1ccc(F)c(C(N)=O)c1)n1ccc(C(F)(F)F)n1 (single isomer, unassigned) [Example 478E] |  |  | 0% | 21500 nM |
| CC(C)C(C(=O)N[C@@H](Cc1cc(F)cc(F)c1)c1ncccc1-c1ccc(F)c(C(N)=O)c1)n1ccc(C(F)(F)F)n1 (single isomer, unassigned) [Example 479] |  | 26400 nM | 2% |  |
| CCC(C(=O)N[C@@H](Cc1cc(F)cc(F)c1)c1ncccc1-c1ccc(F)c(C(N)=O)c1)n1nc(C(F)F)cc1C(F)F (single isomer, unassigned) [Example 483D] |  | 26200 nM | 19% |  |
| CCCCC(C(=O)N[C@@H](Cc1cc(F)cc(F)c1)c1ncccc1-c1ccc(F)c(C(N)=O)c1)n1ccc(C(F)(F)F)n1 (single isomer, unassigned) [Example 487C] |  | 9710 nM | 10% |  |
| CN(C)C(C(=O)N[C@@H](Cc1cc(F)cc(F)c1)c1ncccc1-c1ccc(F)c(C(N)=O)c1)c1ccc(F)cc1 (single isomer, unassigned) [Example 503] | 3% | 40400 nM |  |  |
| NC(=O)c1cc(-c2cccnc2[C@H](Cc2cc(F)cc(F)c2)NC(=O)C(c2ccccc2)C2CCCC2)ccc1F (single isomer, unassigned) [Example 515] | 0% | 9460 nM |  |  |
| Cc1cc2ncn(C(CC(F)(F)F)C(=O)N[C@@H](Cc3cc(F)cc(F)c3)c3ncccc3-c3ccc(F)c(C(N)=O)c3)c2cc1C (single isomer, unassigned) [Example 540E] | −4% | > 53200 nM |  |  |
| CCC(C(=O)N[C@@H](Cc1cc(F)cc(F)c1)c1ncccc1-c1ccc(F)c(C(N)=O)c1)n1ccnc1C(C)C (single isomer, unassigned) [Example 558B] | 3% | > 53200 nM |  |  |
| CCC(C(=O)N[C@@H](Cc1cc(F)cc(F)c1)c1ncccc1-c1ccc(F)c(C(N)=O)c1)n1cc(C(F)(F)F)cn1 (single isomer, unassigned) [Example 565] | 0% | 37600 nM |  |  |
| CCC(C(=O)N[C@@H](Cc1cc(F)cc(F)c1)c1ncccc1-c1ccc(F)c(C(N)=O)c1)n1ccc(C(F)(F)F)n1 (single isomer, unassigned) [Example 572B] |  | 36700 nM | 11% |  |
| CC(C)CC(C(=O)N[C@@H](Cc1cc(F)cc(F)c1)c1ncccc1-c1ccc(F)c(C(N)=O)c1)n1ccc(C(F)(F)F)n1 (single isomer, unassigned) [Example 581D] |  | 10600 nM | 6% |  |
| O=C(Cc1c[nH]c2ccc(O)nc12)N[C@@H](Cc1cc(F)cc(F)c1)c1nccnc1-c1ccc(Cl)cc1 (stereo in doubt) [Example 476, N-(1-(3-(4-chlorophenyl)pyrazin-2-yl)-2-(3,5-difluorophenyl)ethyl)-2-(5-hydroxy-1H-pyrrolo[3,2-b]pyridin-3-yl)acetamide] |  | 53200 nM | 30% |  |
| Cc1ccccc1-c1cccnc1C(Cc1ccccc1)NC(=O)Cn1nc(C(F)(F)F)c2c1CCCC2 (centres unmarked) [Example 2, N-(2-phenyl-1-(3-(o-tolyl)pyridin-2-yl)ethyl)-2-(3-(trifluoromethyl)-4,5,6,7-tetrahydro-1H-indazol-1-yl)acetamide] |  | 14000 nM | 29% |  |
| Cc1ccccc1-c1cccnc1C(Cc1cc(F)cc(F)c1)NC(=O)Cc1c[nH]c2ccc(O)cc12 (centres unmarked) [Example 3, N-(2-(3,5-difluorophenyl)-1-(3-o-tolylpyridin-2-yl)ethyl)-2-(5-hydroxy-1H-indol-3-yl)acetamide] |  | 21900 nM | 40% |  |
| Cc1ccccc1-c1cccnc1C(Cc1cc(F)cc(F)c1)NC(=O)Cn1nc(C(F)(F)F)c2c1CCCC2 (centres unmarked) [Example 4, N-(2-(3,5-difluorophenyl)-1-(3-o-tolylpyridin-2-yl)ethyl)-2-(3-(trifluoromethyl)-4,5,6,7-tetrahydro-1H-indazol-1-yl)acetamide] |  | 10300 nM | 69% |  |
| COc1ccc(-c2cccnc2C(Cc2cc(F)cc(F)c2)NC(=O)Cc2c[nH]c3ccc(O)cc23)c(C)c1 (centres unmarked) [Example 5, N-(2-(3,5-difluorophenyl)-1-(3-(4-methoxy-2-methylphenyl)pyridin-2-yl)ethyl)-2-(5-hydroxy-1H-indol-3-yl)acetamide] |  | 32700 nM | 76% |  |
| COc1ccc(-c2cccnc2C(Cc2cc(F)cc(F)c2)NC(=O)Cn2nc(C(F)(F)F)c3c2CCCC3)c(C)c1 (centres unmarked) [Example 6, N-(2-(3,5-difluorophenyl)-1-(3-(4-methoxy-2-methylphenyl)pyridin-2-yl)ethyl)-2-(3-(trifluoromethyl)-4,5,6,7-tetrahydro-1H-indazol-1-yl)acetamide] |  | 11400 nM | 45% |  |
| COc1cc(C)c(-c2cccnc2C(Cc2cc(F)cc(F)c2)NC(=O)Cc2c[nH]c3ccc(O)cc23)c(C)c1 (centres unmarked) [Example 7, N-(2-(3,5-difluorophenyl)-1-(3-(4-methoxy-2,6-dimethylphenyl)pyridin-2-yl)ethyl)-2-(5-hydroxy-1H-indol-3-yl)acetamide] |  | 17600 nM | 18% |  |
| COc1cc(C)c(-c2cccnc2C(Cc2cc(F)cc(F)c2)NC(=O)Cn2nc(C(F)(F)F)c3c2CCCC3)c(C)c1 (centres unmarked) [Example 8, N-(2-(3,5-difluorophenyl)-1-(3-(4-methoxy-2,6-dimethylphenyl)pyridin-2-yl)ethyl)-2-(3-(trifluoromethyl)-4,5,6,7-tetrahydro-1H-indazol-1-yl)acetamide] |  | 15700 nM | 20% |  |
| Cc1ccccc1-c1ccnc(C(Cc2ccccc2)NC(=O)Cc2c[nH]c3ccc(O)cc23)n1 (centres unmarked) [Example 9E, 2-(5-hydroxy-1H-indol-3-yl)-N-(2-phenyl-1-(4-o-tolylpyrimidin-2-yl)ethyl)acetamide] |  | 35900 nM | 0% |  |
| Cc1ccccc1-c1ccnc(C(Cc2ccccc2)NC(=O)Cn2nc(C(F)(F)F)c3c2CCCC3)n1 (centres unmarked) [Example 10, N-(2-phenyl-1-(4-o-tolylpyrimidin-2-yl)ethyl)-2-(3-(trifluoromethyl)-4,5,6,7-tetrahydro-1H-indazol-1-yl)acetamide] |  | 13000 nM | 0% |  |
| Cc1ccccc1-c1ccnc(C(Cc2cc(F)cc(F)c2)NC(=O)Cc2c[nH]c3ccc(O)cc23)n1 (centres unmarked) [Example 11, N-(2-(3,5-difluorophenyl)-1-(4-o-tolylpyrimidin-2-yl)ethyl)-2-(5-hydroxy-1H-indol-3-yl)acetamide] |  | 35700 nM | 0% |  |
| Cc1ccccc1-c1ccnc(C(Cc2cc(F)cc(F)c2)NC(=O)Cn2nc(C(F)(F)F)c3c2CCCC3)n1 (centres unmarked) [Example 12, N-(2-(3,5-difluorophenyl)-1-(4-o-tolylpyrimidin-2-yl)ethyl)-2-(3-(trifluoromethyl)-4,5,6,7-tetrahydro-1H-indazol-1-yl)acetamide] |  | 8980 nM | 0% |  |
| COc1ccc(-c2cccnc2[C@H](Cc2cc(F)cc(F)c2)NC(=O)Cc2c[nH]c3ccc(O)cc23)cc1 [Example 13G, (S)—N-(2-(3,5-difluorophenyl)-1-(3-(4-methoxyphenyl)pyridin-2-yl)ethyl)-2-(5-hydroxy-1H-indol-3-yl)acetamide] |  | 25600 nM | 97% |  |
| Cc1ccccc1-c1cccnc1[C@H](Cc1ccccc1)NC(=O)Cc1c[nH]c2ccc(O)cc12 [Example 14, (S)-2-(5-hydroxy-1H-indol-3-yl)-N-(2-phenyl-1-(3-o-tolylpyridin-2-yl)ethyl)acetamide] |  | 25400 nM | 76% |  |
| Cc1ccccc1-c1cccnc1[C@@H](Cc1ccccc1)NC(=O)Cc1c[nH]c2ccc(O)cc12 [Example 15, (R)-2-(5-hydroxy-1H-indol-3-yl)-N-(2-phenyl-1-(3-o-tolylpyridin-2-yl)ethyl)acetamide] |  | 28200 nM | 0% |  |
| NC(=O)c1cc(-c2cccnc2[C@H](Cc2cc(F)cc(F)c2)NC(=O)Cn2nc(C(F)(F)F)c3c2CCCC3)ccc1F [Example 589, (S)-5-(2-(2-(3,5-difluorophenyl)-1-(2-(3-(trifluoromethyl)-4,5,6,7-tetrahydro-1H-indazol-1-yl)acetamido)ethyl)pyridin-3-yl)-2-fluorobenzamide] |  |  | 106% |  |
